Results on three compounds are retold here after publication PMC11676834, “Composition of Triterpene Glycosides of the Far Eastern Sea Cucumber Cucumaria conicospermium Levin et Stepanov; Structure Elucidation of Five Minor Conicospermiumosides A3-1, A3-2, A3-3, A7-1, and A7-2; Cytotoxicity of the Glycosides Against Human Breast Cancer Cell Lines; Structure–Activity …” (Marine Drugs, 2024).

Read-outs that look alike come from different tables or passages of the source.

In data set [1] the test system is MDA-MB-231 cells. Kind of data set: cells. Format: cell-based, human. The source says:
(§1) Human erythrocytes were purchased from the Station of Blood Transfusion, Vladivostok. Human mammary epithelial cell line MCF-10A CRL-10317, human breast cancer cell lines T-47D HTB-133, MCF-7 HTB-22, and MDA-MB-231 CRM-HTB-26 were received from ATCC (Manassas, VA, USA). Culturing conditions: medium of RPMI-1640 with 1% penicillin/streptomycin (Biolot, St. Petersburg, Russia) and 10% fetal bovine serum (FBS) (Biolot, St. Petersburg, Russia) for the T-47D cell line; Minimum Essential Medium (MEM) with 1% penicillin/streptomycin sulfate (Biolot, St. Petersburg, Russia) and FBS (Biolot, St. Petersburg, Russia) to a final concentration of 10% for MCF-7 and MDA-MB-231 cells; DMEM/F12 medium with 10% FBS, 20 ng/mL EGF, […] hydrocortisone, 100 ng/mL cholera toxin, 10 μg/mL insulin, and 1% penicillin/streptomycin (BioinnLabs, Rostov-on-Don, Russia) for MCF-10A cell line.
(§2) The concentrations of tested glycosides were 0.1–50 µM; positive controls were cisplatin and okhotoside A1-1 (7). […] Then, the solutions of tested compounds with medium were replaced by 100 µL of fresh medium, and 10 µL of 3-(4,5-dimethylthiazol-2-yl)-2,5-diphenyltetrazolium bromide (MTT) (PanReac, AppliChem, Darmstadt, Germany) stock solution (5 mg/mL) was added to each well and incubated for 4 h, followed by the addition of 100 µL of SDS-HCl solution (1 g SDS/10 mL d-H2O/17 µL 6 N HCl) and further incubated for 18 h. Multiskan FC microplate photometer (Thermo Fisher Scientific, Waltham, MA, USA) was used to measure the absorbance of the converted dye formazan at 570 nm. The concentration caused the 50% cell metabolic activity inhibition (IC50) expresses the cytotoxic activity of each glycoside. The experiments were conducted in triplicate, p ≤ 0.05.

A further data set concerns human erythrocytes. The data set can be described thus: Hemolytic activity. The note with it: 1 h at 37 °C; for HC50: Erythrocyte, read-out: ED50, Erythrocytes (hemolytic activity). Format: cell-based. On the procedure: Human blood (B(III) Rh+) was used to obtain erythrocytes by centrifuging 450× g three times for 5 min with phosphate-buffered saline (PBS) (pH 7.4) at 4 °C on centrifuge LABOFUGE 400R (Heraeus, Hanau, Germany). Ice-cold PBS (pH 7.4) was used for resuspension of erythrocytes residue to a final optical density of 1.5 at 700 nm, which was kept on ice. Then, 10 µL of tested compound solution or control (okhotoside A1-1 (7)) were added to 90 µL of erythrocyte suspension in V-bottom 96-well plates and exposed for 1 h at 37 °C. Next, centrifugation at 900× g for 10 min on a laboratory centrifuge LMC-3000 (Biosan, Riga, Latvia), led to separation of layers, and 80 µL of supernatant was carefully decanted and transferred into new flat-plate for each. The values of erythrocyte lysis were measured on microplate photometer Multiskan FC (Thermo Fisher Scientific, Waltham, MA, USA) at λ = 570 nm as hemoglobin concentration in supernatant. The effective dose, causing lysis of 50% erythrocytes (ED50), was calculated with SigmaPlot 14.0 software. All the experiments were carried out in triple repetitions, p ≤ 0.05.

Another data set deals with MCF-7 cells. The data set can be described thus: cells. Type of data set: cell-based, human. The note with it: MTT, 24 h, read-out: Cytotoxicity, IC50, MCF-7.
Description: as §1
(§3) The concentrations of tested glycosides were 0.1–50 µM; positive controls were cisplatin and okhotoside A1-1 (7). Methodology: to each well of 96-well plates, the cell suspension (180 µL) with solution (20 µL) of tested glycoside in a certain concentration was placed (MCF-10A, MCF-7, T-47D, and MDA-MB-231—7 × 10^3 cells per well) and incubated in the atmosphere with 5% CO2 at 37 °C for 24 h. Then, the solutions of tested compounds with medium were replaced by 100 µL of fresh medium, and 10 µL of 3-(4,5-dimethylthiazol-2-yl)-2,5-diphenyltetrazolium bromide (MTT) (PanReac, AppliChem, Darmstadt, Germany) stock solution (5 mg/mL) was added to each well and incubated for 4 h, followed by the addition of 100 µL of SDS-HCl solution (1 g SDS/10 mL d-H2O/17 µL 6 N HCl) and further incubated for 18 h. Multiskan FC microplate photometer (Thermo Fisher Scientific, Waltham, MA, USA) was used to measure the absorbance of the converted dye formazan at 570 nm. The concentration caused the 50% cell metabolic activity inhibition (IC50) expresses the cytotoxic activity of each glycoside. The experiments were conducted in triplicate, p ≤ 0.05.

In another data set the test system is T-47D cells. Kind of data set: cells. Type of data set: cell-based, human. Particulars: MTT, 24 h, read-out: Cytotoxicity, IC50, T-47D.
Description: as §1, §3

Another data set is described as follows: in vitro. Type of data set: cell-based, human. The note with it: human.
Description: as §1, §2

Data set [2] deals with MDA-MB-231 cells. The data set can be described thus: Colony formation (clonogenic) assay, MDA-MB-231. Format: cell-based, human. On the procedure:
The influence of glycosides on colony formation by MCF-10A or MDA-MB-231 cells was tested by the clonogenic assay. Cell density: 0.3 × 10^2/mL for MDA-MB-231 and for MCF-10A cells per well; incubation conditions: 10–12 days, 37 °C, atmosphere with 5% CO2; obtained: visible to eye colonies (at least 50 cells per colony); fixation with methanol (25 min); staining with 0.5% solution of crystal violet (25 min); washing and air-drying of plates. The counting of grown colonies was carried out using a BIO-PRINT-Cx4 Edge-Fixed Pad-Container (Vilber, Collégien, France) using Bio-Vision Software user and service manual-v18.01 (Vilber, Collégien, France). The results are presented as colony inhibition in comparison with the control.

In data set [3] the test system is MDA-MB-231 cells. The data set can be described thus: Wound scratch migration assay. Format: cell-based, human. The note with it: 24 h. On the procedure: Attached to special migration plate plastic bottom MDA-MB-231 cells were separated by a silicone insert (Culture-insert 2 Well 24, ibiTreat). After removing an insert, the gap between the cells was 500 ± 50 μm. Cell debris and floating cells were deleted, and the fresh culture medium was added. Then, cells were treated with various concentrations of glycosides or culture medium only (vehicle control) and left for 24 hrs. Cell migration into the wound area was observed under a fluorescence microscope (MIB-2-FL, LOMO, Russia) with objective 10× magnification.

For another data set, the system named is MCF-10A cells. Kind of data set: in vitro. Type of data set: cell-based, human.
Description: as §1, §2

[4] abbreviates: Homo sapiens, MDA-MB-231, 48 h, read-out: Cytotoxicity, IC50, 48 h, MDA-MB-231.
Setting [5] is: Homo sapiens, MDA-MB-231, 72 h, read-out: Cytotoxicity, IC50, 72 h, MDA-MB-231.
[6] abbreviates: Homo sapiens, MDA-MB-231, MTT, 24 h, read-out: Cytotoxicity, IC50, MDA-MB-231.
Setting [7] is: 48 h, read-out: Cytotoxicity, IC50, 48 h, MCF-10A.
The mark [8] stands for this setting: 72 h, read-out: Cytotoxicity, IC50, 72 h, MCF-10A.
Setting [9] is: MTT, 24 h, read-out: Cytotoxicity, IC50, MCF-10A.
Where [10] appears, read: Homo sapiens, MDA-MB-231, inhibition out of control, read-out: Inhibition of colony growth of MDA-MB-231 cells.

As to `CO[C@@H]1[C@@H](O)[C@H](O[C@@H]2[C@@H](O)[C@H](O[C@H]3[C@H](O)[C@@H](O[C@@H]4OC[C@@H](O)[C@H](O)[C@H]4O)[C@H](O[C@H]4[C@H](O[C@H]5CC[C@]6(C)C7CC[C@]8(C)[C@@H]([C@@](C)(O)[C@H](O)CC=C(C)C)CC[C@@]8(C)C7=CC[C@H]6C5(C)C)OC[C@@H](OS(=O)(=O)[O-])[C@@H]4O)O[C@@H]3C)O[C@H](COS(=O)(=O)[O-])[C@H]2O)O[C@H](CO)[C@H]1O.[Na+].[Na+]` (stereo partly drawn) [Conicospermiumoside A3-1 (1), 3β-O-{3-O-methyl-β-D-glucopyranosyl-(1→3)-6-O-sodium sulfate-β-D-glucopyranosyl-(1→4)-[(1→2)-β-D-xylopyranosyl]-β-D-quinovopyranosyl-(1→2)-4-O-sodium sulfate-β-D-xylopyranosyl}-20R,22R-dihydroxylanosta-7,24-diene], the “Tumor cell selectivity index (SI), IC50 MCF-10A / IC50 MDA-MB-231” value was found to be 2.29 in the data set on MDA-MB-231 cells [1] (24 h), 11.97 with MDA-MB-231 cells [1] (48 h) and 3.14 in the data set on MDA-MB-231 cells [1] (72 h). Moreover, the 50% inhibitory concentration (IC50) with MDA-MB-231 cells [1] (setting [4]) came out at 2.54 ± 0.09 µM; in the data set on MDA-MB-231 cells [1] (setting [5]), 12.4 ± 0.75 µM; in the data set on MDA-MB-231 cells [1] (setting [6]), 5.93 ± 0.35 µM; in the data set on MCF-7 cells (Homo sapiens, MCF7) it was 41.7 ± 3.08 µM; with T-47D cells (Homo sapiens, T47D), 19.9 ± 1.02 µM; in “in vitro” (setting [7]), 30.4 ± 1.05 µM. The results for the concentration for half-maximal inhibition (IC50) in “in vitro” (setting [8]) and in the data set “in vitro” (setting [9]) were 39 ± 2.15 µM and 13.6 ± 0.71 µM, respectively. For the same compound, the HC50 in the data set with human erythrocytes stood at 770 ± 70 nM. In the data set on MDA-MB-231 cells [2] (setting [10]), the inhibition at 5 µM was determined as 99.6%.
For the compound `CO[C@@H]1[C@@H](O)[C@H](O[C@@H]2[C@@H](O)[C@H](O[C@H]3[C@H](O)[C@@H](O[C@@H]4OC[C@@H](O)[C@H](O)[C@H]4O)[C@H](O[C@H]4[C@H](O[C@H]5CC[C@]6(C)C7CC[C@]8(C)[C@@H]([C@@](C)(O)C(=O)CC=C(C)C)CC[C@@]8(C)C7=CC[C@H]6C5(C)C)OC[C@@H](OS(=O)(=O)[O-])[C@@H]4O)O[C@@H]3C)O[C@H](COS(=O)(=O)[O-])[C@H]2O)O[C@H](CO)[C@H]1O.[Na+].[Na+]` (stereo partly drawn) [Conicospermiumoside A3-3 (3), 3β-O-{3-O-methyl-β-D-glucopyranosyl-(1→3)-6-O-sodium sulfate-β-D-glucopyranosyl-(1→4)-[(1→2)-β-D-xylopyranosyl]-β-D-quinovopyranosyl-(1→2)-4-O-sodium sulfate-β-D-xylopyranosyl}-20R-hydroxy,22-oxolanosta-7,24-diene], the “Tumor cell selectivity index (SI), IC50 MCF-10A / IC50 MDA-MB-231” value in the data set on MDA-MB-231 cells [1] (24 h) was 2.03; with MDA-MB-231 cells [1] (48 h), 1.05; with MDA-MB-231 cells [1] (72 h) it was 1.02. Further, the IC50 in the data set on MDA-MB-231 cells [1] (setting [4]) was determined as 10.1 ± 0.71 µM; in the data set on MDA-MB-231 cells [1] (setting [5]), 5.18 ± 0.43 µM; in the data set on MDA-MB-231 cells [1] (setting [6]), 5.62 ± 0.26 µM; with MCF-7 cells (Homo sapiens, MCF7), 28.5 ± 1.18 µM; in the data set on T-47D cells (Homo sapiens, T47D) it was 10.7 ± 0.94 µM; in the data set “in vitro” (setting [7]), 10.6 ± 0.72 µM. The half-inhibitory concentration (IC50) was determined as 5.27 ± 0.36 µM in the data set “in vitro” (setting [8]) and 11.4 ± 0.58 µM in “in vitro” (setting [9]). Further, the HC50 in the data set with human erythrocytes is 210 ± 20 nM. Further, the inhibition at 2 µM with MDA-MB-231 cells [3] (Homo sapiens, MDA-MB-231, 2 μM, read-out: Inhibition of migration of MDA-MB-231 cells as compared with control) turned out to be 63.7%; with MDA-MB-231 cells [2] (Homo sapiens, MDA-MB-231, 2 μM, read-out: Inhibition of colony growth of MDA-MB-231 cells), 96.8%. In addition, the inhibition at 5 µM with MDA-MB-231 cells [2] (setting [10]) turned out to be 98.8%.
Regarding “DS-okhotoside A1-1 [DS-okhotoside A1-1 (7a)]”, the results for the “Tumor cell selectivity index (SI), IC50 MCF-10A / IC50 MDA-MB-231” value in the data set with MDA-MB-231 cells [1] (24 h), in the data set with MDA-MB-231 cells [1] (48 h) and in the data set on MDA-MB-231 cells [1] (72 h) were 2.76, 1.20 and 1.42, respectively. Moreover, the IC50 with MDA-MB-231 cells [1] (48 h, read-out: Cytotoxicity, IC50, 48 h, MDA-MB-231) was found to be 4.32 ± 0.3 µM; in the data set on MDA-MB-231 cells [1] (72 h, read-out: Cytotoxicity, IC50, 72 h, MDA-MB-231), 2.73 ± 0.18 µM; with MDA-MB-231 cells [1] (MTT, 24 h, read-out: Cytotoxicity, IC50, MDA-MB-231), 2.83 ± 0.36 µM; with MCF-7 cells, 18.8 ± 1.02 µM; in the data set on T-47D cells, 7.8 ± 0.31 µM; in the data set on MCF-10A cells (setting [7]) it was 5.18 ± 0.28 µM. Moreover, the IC50 in the data set on MCF-10A cells (setting [8]) was determined as 3.87 ± 0.24 µM; with MCF-10A cells (setting [9]), 7.81 ± 0.32 µM. In addition, the “ED50, Erythrocytes (hemolytic activity)” value with human erythrocytes is recorded as 0.24 ± 0.02 µM. Moreover, the “Inhibition of migration of MDA-MB-231 cells as compared with control” value with MDA-MB-231 cells [3] (0.5 μM) was 61.2%. Besides, in the data set with MDA-MB-231 cells [3] (1 μM), the “Constraint on cell motility (migration) of MDA-MB-231 cells” value is reported as 85%. In the data set with MDA-MB-231 cells [2] (1 μM, inhibition out of control), the “Inhibition of colony growth of MDA-MB-231 cells” value amounted to 97.2%.

The IC50 is the concentration at which inhibition is half-maximal.
